# In US20020022215A1 (priority 2000, published 2002):
# Where two headings read alike, the source gives them in different places.
# Tests used:
# E. coli B [1] = assay: Inactivation of E. coli B on porphyrin-containing cellulose acetate membranes; type: cell-based, Escherichia coli B (ATCC 11303); conditions: cellulose acetate membranes containing the porphyrin, UV light, 100 minutes
# Description: Cultures of E. coli B (ATCC 11303) were grown the day before an experiment to log phase growth in 50 milliliters of tryptic soy broth (TSB) followed by centrifugation at 3000 rpm for 10 minutes and at 4° C. The supernatant was drawn off and discarded and pellets were resuspended in 10 mL of 0.2 M phosphate buffered saline (PBS; pH 7.2). The centrifugation-resuspension process was repeated for a total of three times. Preparations were kept at 4° C. until ready for use. Bacterial cultures were assayed on tryptic soy agar (TSA) by spot or spread plating duplicate 0.04 to 0.1 ml volumes of the serially diluted preparation onto the agar plates, and was enumerated via colony counts after incubation overnight at 44.5° C. Results are expressed as cfu/ml. On the day of an experiment, the stock preparation was serially diluted in PBS to a target concentration of about […] E. coli cells per milliliter for use on membranes and in solution, respectively. Duplicate 0.1 ml volumes of the experimental samples were spread plated on TSA and incubated overnight at 44.5° C.
# When cellulose acetate membranes containing protoporphyrin IX (disodium salt) were exposed to UV light, E. coli B was inactivated by 0.3 log10 cfu/ml in 100 minutes and by about 1.0 log10 (90%) in 300 minutes (FIG. 8).
# coliphage MS2 = type: cell-based, coliphage MS2 (ATCC 15597-B1); conditions: for log10 reduction of MS2 / reduction of MS2: in NaCl, UV light
# Escherichia coli B = assay: Initial studies: inactivation of Escherichia coli B with and without aeration of the medium; type: cell-based
# Text: Light alone, or porphyrin alone, were ineffective.
# HAV = type: cell-based, hepatitis A virus, strain HM175; conditions: for reduction of HAV: in plasma
# [2] = tested on: Chinese Hamster Ovary (CHO) cells
# E. coli B [3] = type: cell-based, Escherichia coli B (ATCC 11303); conditions: for log10 reduction of E. coli B / percentage reduction of E. coli B: 10^−3 M in NaCl, 365 nm UV; for log10 reduction of Escherichia coli B / percentage reduction of Escherichia coli B: 365 nm light
# Klebsiella oxytoca = assay: Inactivation of Klebsiella oxytoca in human plasma; type: cell-based; conditions: 10^−5 M with light (FIG. 7)
# poliovirus (PV1) = type: cell-based, Poliovirus-1
# [4] = 10^−4 M, another experiment (controls 193)
# [5] = 10^−4 M, six days, first experiment (controls 271)
# [6] = 10^−5 M, another experiment (controls 193)
# [7] = 10^−5 M, six days, first experiment (controls 271)
smiles,measurement,setting,value
C=CC1=C(C)c2cc3[nH]c(cc4nc(cc5[nH]c(cc1n2)c(C)c5CCC(=O)O)C(CCC(=O)O)=C4C)c(C)c3C=C [protoporphyrin IX],inactivation of E. coli B,E. coli B [1],0.3 log10 cfu/ml
"C[n+]1ccc(-c2c3nc(c(-c4cc[n+](C)cc4)c4ccc([nH]4)c(-c4cc[n+](C)cc4)c4nc(c(-c5cc[n+](C)cc5)c5ccc2[nH]5)C=C4)C=C3)cc1.Cc1ccc(S(=O)(=O)[O-])cc1.Cc1ccc(S(=O)(=O)[O-])cc1.Cc1ccc(S(=O)(=O)[O-])cc1.Cc1ccc(S(=O)(=O)[O-])cc1 [TMPyP4, tetrakis (N-methyl-4-pyridiniumyl) porphine tetratosylate]","MS2 incubated in the dark, infectivity assay","coliphage MS2; 10^−3 M in PBS, dark",not detected
same,log10 reduction of MS2,coliphage MS2; 1 minute,0.3 log10
same,reduction of MS2,coliphage MS2; 1 minute,50%
same,log10 reduction of MS2,coliphage MS2; 10 minutes,0.9 log10
same,reduction of MS2,coliphage MS2; 10 minutes,87%
same,log10 reduction of MS2,coliphage MS2; 60 minutes,> 3.8 log10
same,reduction of MS2,coliphage MS2; 60 minutes,> 99.98%
same,MS2 in the absence of light,coliphage MS2; no light (FIG. 3),unaffected
same,MS2 in porphyrin/plasma mixture not exposed to LWUV,"coliphage MS2; plasma, no LWUV",not detectable
same,inactivation of Escherichia coli B,"Escherichia coli B; 30 minutes, medium aerated by sparging with air",over 3.7 log
same,"inactivation of Escherichia coli B, medium not aerated",Escherichia coli B; medium not aerated,No inactivation
same,effect of porphyrin alone on Escherichia coli B,"Escherichia coli B; porphyrin alone, without light",ineffective
same,inactivation of HAV in water,"HAV; 10^−5M in water, light, 30 min (FIG. 5)",greater than 3 logs
same,CHO colony count,[2]; [4],no colony forming units detected
same,CHO colony count,[2]; [5],no cells could be detected
same,CHO colony count,[2]; [6],183 cfu/well
same,CHO colony count,[2]; [7],322 cfu/well
same,log10 reduction of E. coli B,E. coli B [3]; 1 minute,1.7 log10
same,percentage reduction of E. coli B,E. coli B [3]; 1 minute,98%
same,log10 reduction of E. coli B,E. coli B [3]; 10 minutes,2.4 log10
same,percentage reduction of E. coli B,E. coli B [3]; 10 minutes,99.6%
same,log10 reduction of E. coli B,E. coli B [3]; 30 minutes,3.7 log10
same,percentage reduction of E. coli B,E. coli B [3]; 30 minutes,99.98%
same,log10 reduction of E. coli B,E. coli B [3]; 90 minutes,> 5.9 log10
same,"E. coli B incubated in the dark, infectivity assay","E. coli B [3]; 10^−3 M in PBS, dark",not detected
same,infectivity of E. coli B after treatment,"E. coli B [3]; 10^−5 M in PBS, with or without light, one minute (FIG. 9)",decreased below detection limits
same,inactivation of Klebsiella oxytoca,Klebsiella oxytoca,over 5 log10
same,poliovirus (PV1) in the absence of light,poliovirus (PV1),unaffected
"CCCC[n+]1ccc(-c2c3nc(c(-c4cc[n+](CCCC)cc4)c4ccc([nH]4)c(-c4cc[n+](CCCC)cc4)c4nc(c(-c5cc[n+](CCCC)cc5)c5ccc2[nH]5)C=C4)C=C3)cc1 [TPyPH2(N-Bu), tetrakis (4-n-butylpyridiniumyl) porphyrin]",reduction of HAV,HAV; 1 minute (first of five values),0.1 log10
same,reduction of HAV,HAV; 10 minutes (second of five values),1.5 log10
same,reduction of HAV,HAV; 30 minutes (third of five values),1.6 log10
same,reduction of HAV,HAV; 90 minutes (last of five values),> 3.3 log10
same,reduction of HAV,"HAV; fourth of five values, its time is not given",2.7 log10
same,CHO colony count,[2]; [4],no colony forming units detected
same,CHO colony count,[2]; [6],186 cfu/well
"Cl.Cl.O=S(=O)(O)c1ccc(-c2c3nc(c(-c4ccc(S(=O)(=O)O)cc4)c4ccc([nH]4)c(-c4ccc(S(=O)(=O)O)cc4)c4nc(c(-c5ccc(S(=O)(=O)O)cc5)c5ccc2[nH]5)C=C4)C=C3)cc1 [TPPS4, meso-tetra-(4-sulfonatophenyl)-porphine dihydrochloride]",MS2 in the absence of light,coliphage MS2,unaffected
same,coliphage MS2 after 10 minutes of contact,coliphage MS2,unaffected
same,inactivation of coliphage MS2 in plasma,coliphage MS2,about 3 logs
same,initial infectious test microbes remaining at the end of each experimental period,coliphage MS2,approximately 100%
same,loss of infectivity without UV light,coliphage MS2,no loss of infectivity
same,inactivation of HAV in plasma,HAV,about 1 log
same,inactivation of HAV in water,HAV,2 logs
same,reduction of HAV in plasma,HAV,2 logs
same,CHO colony count,[2]; [4],189 cfu/well
same,CHO colony count,[2]; [5],320 cfu/well
same,CHO colony count,[2]; [7],310 cfu/well
same,log10 reduction of Escherichia coli B,"E. coli B [3]; 10^−5 M in PBS, 1 minute",0.6 log10
same,percentage reduction of Escherichia coli B,"E. coli B [3]; 10^−5 M in PBS, 1 minute",75%
same,log10 reduction of Escherichia coli B,"E. coli B [3]; 10^−5 M in PBS, 10 minutes",1.6 log10
same,percentage reduction of Escherichia coli B,"E. coli B [3]; 10^−5 M in PBS, 10 minutes",97%
same,log10 reduction of Escherichia coli B,"E. coli B [3]; 10^−5 M in PBS, 30 minutes",> 5.5 log10
same,loss of infectivity of E. coli B in the absence of long-wavelength UV light,E. coli B [3]; porphyrin without long-wavelength UV light,did not result in any loss of infectivity
